Reference: publication PMC12220852, “An adamantane‐based ligand as a novel chemical tool for thermosensory TRPM8 channel therapeutic modulation” (The Febs Journal, 2025)
“Also recorded” adds a separate entry of the source. Where two headings read alike, the source gives them in different places.

Legend:
[1] = biological target: T1, recombinant human TRPM8 stably expressed in HEK293 cells (hTRPM8) (Homo sapiens, UniProt Q7Z2W7); test: Ca2+ microfluorimetry screen for agonist/antagonist activity in hTRPM8-HEK293 cells; type: cell-based; details: agonists vs WS-12, antagonists vs WS-12 response, read-out: Efficacy (percentage of maximal activation or blockade)
T1 construct: expressed in transfected cells

[2] = biological target: T1, recombinant human TRPM8 stably expressed in HEK293 cells (hTRPM8); test: as above; type: cell-based; details: for Activity (agonist/antagonist): agonism = compound-induced Ca2+ influx, antagonism = modulation of WS-12-induced Ca2+ influx; for EC50: half of channel activation; for Hill coefficient: hTRPM8-HEK293 Ca2+ microfluorimetry dose-response
Source text: We first evaluated the series of compounds 20–29 synthesized using the Passerini‐Adamantane reaction. All compounds were screened for channel agonism and antagonism on recombinant human TRPM8 stably expressed in HEK293 cells (hTRPM8‐HEK293) with Ca^2+ microfluorimetry. […] Compound‐induced TRPM8‐mediated Ca^2+ influx was confirmed using untransfected HEK293 cells and the channel blocker AMTB. […] The concentration of compounds to reach half of channel activation (EC50) or to block half‐channel activity evoked by WS‐12 (IC50) are reported in Table 1, along with the percentage of maximal activation or blockade (Efficacy).
Assays were conducted to assess the channel activity of the recombinant hTRPM8 stably expressed in HEK‐293 cells. HEK‐293‐hTRPM8 cells were cultured in a monolayer using a DMEM GlutaMax with 10% FBS and 1% P/S and maintained at 37 °C in 5% CO2. For experiments, cells were prepared and seeded at the indicated densities. To evaluate compound effectiveness against hTRPM8 activity, microfluorometry‐based calcium flux assays were performed using Fluo‐4 NW Ca^2+ dye and fluorescence detection. HEK cell lines expressing hTRPM8 were seeded in 96‐well plates and incubated with the dye‐loading solution. Ion channel activity was measured using a plate reader, and fluorescence intensity changes were recorded following the addition of vehicle, compound at varying concentrations, and antagonist (10 μM AMTB). Data analysis included calculating the Z‐factor for each assay and normalizing compound effects to […]. Data were analyzed to determine the concentration exerting half‐maximal inhibition (IC50) or activation (EC50) of agonist‐induced calcium elevation, using GRAPHPAD PRISM8® software (Boston, MA, USA). All experiments were conducted in triplicate, and results are presented as mean ± standard deviation.

[3] = hTRPM8-HEK293, mean ± SD, N = 3
[4] = hTRPM8-HEK293, block of half channel activity evoked by WS-12, mean ± SD, N = 3, read-out: IC50

T1 sequence (Q7Z2W7 whole entry): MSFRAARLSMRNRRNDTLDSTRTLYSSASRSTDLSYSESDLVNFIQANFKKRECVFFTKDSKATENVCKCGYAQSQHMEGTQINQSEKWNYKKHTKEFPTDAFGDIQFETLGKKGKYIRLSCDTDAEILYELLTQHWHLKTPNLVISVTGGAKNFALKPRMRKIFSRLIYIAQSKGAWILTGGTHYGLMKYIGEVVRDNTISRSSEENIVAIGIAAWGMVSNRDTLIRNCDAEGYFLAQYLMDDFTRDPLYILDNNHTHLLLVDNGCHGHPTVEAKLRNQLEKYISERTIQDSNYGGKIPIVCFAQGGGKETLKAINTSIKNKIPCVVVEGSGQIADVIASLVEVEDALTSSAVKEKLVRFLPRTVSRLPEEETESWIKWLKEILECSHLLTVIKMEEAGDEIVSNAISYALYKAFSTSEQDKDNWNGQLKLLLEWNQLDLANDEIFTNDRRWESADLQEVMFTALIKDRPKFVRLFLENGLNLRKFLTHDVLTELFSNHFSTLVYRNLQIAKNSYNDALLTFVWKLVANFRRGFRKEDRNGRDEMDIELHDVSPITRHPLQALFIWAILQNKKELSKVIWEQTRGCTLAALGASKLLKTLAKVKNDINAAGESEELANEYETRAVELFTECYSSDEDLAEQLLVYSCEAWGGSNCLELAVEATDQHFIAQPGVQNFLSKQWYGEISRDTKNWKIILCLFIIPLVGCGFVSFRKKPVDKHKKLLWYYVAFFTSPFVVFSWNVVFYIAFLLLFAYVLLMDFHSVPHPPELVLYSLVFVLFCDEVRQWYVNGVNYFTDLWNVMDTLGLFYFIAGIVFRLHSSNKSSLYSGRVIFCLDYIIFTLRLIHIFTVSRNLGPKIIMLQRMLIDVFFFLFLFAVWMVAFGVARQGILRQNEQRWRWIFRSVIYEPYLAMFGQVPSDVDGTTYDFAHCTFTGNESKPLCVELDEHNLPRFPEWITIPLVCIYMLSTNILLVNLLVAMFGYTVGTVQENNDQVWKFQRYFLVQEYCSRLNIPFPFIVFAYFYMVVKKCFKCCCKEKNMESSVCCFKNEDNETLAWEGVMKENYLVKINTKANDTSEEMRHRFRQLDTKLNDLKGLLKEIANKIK

SMILES	Emax [1] [%]	Activity (agonist/antagonist) ([2]; hTRPM8-HEK293)	EC50 [2, 3] [nM]	Hill coefficient ([2]; mean ± SD)	IC50 [2, 4] [nM]	IC50 [2] [nM]	fold lower agonist potency compared with α‐aminoacyl amide 32 ([2]; hTRPM8-HEK293, EC50 comparison) [fold]
CCCC(=O)N(CC(=O)NC12CC3CC(CC(C3)C1)C2)C1CC1 [Compound 31, N‐(2‐(((3S,5S,7S)‐adamantan‐1‐yl)amino)‐2‐oxoethyl)‐N‐cyclopropylbutyramide]	72	Agonist	300	0.7 ± 2.5			
CC(=O)N(CC(=O)NC12CC3CC(CC(C3)C1)C2)Cc1ccccc1 [Compound 40, N‐((3S,5S,7S)‐adamantan‐1‐yl)‐2‐(N‐benzylacetamido)acetamide]	86	Agonist	1400 ± 1400	0.7 ± 2.4			
O=C(COC(=O)c1cccc([N+](=O)[O-])c1)NC12CC3CC(CC(C3)C1)C2 [Compound 29, 2‐((3S,5S,7S)‐adamantan‐1‐ylamino)‐2‐oxoethyl 3‐nitrobenzoate]	69	Antagonist		0.5 ± 3.0	2300 ± 1100		
O=C(COC(=O)c1ccc(Cl)cc1)NC12CC3CC(CC(C3)C1)C2 [Compound 28, 2‐((3S,5S,7S)‐adamantan‐1‐ylamino)‐2‐oxoethyl 4‐chlorobenzoate]	87	agonist activity	1200 ± 1200	0.1 ± 0.2			
CC(=O)OCC(=O)NC12CC3CC(CC(C3)C1)C2 [Compound 22, 2‐((3S,5S,7S)‐adamantan‐1‐ylamino)‐2‐oxoethyl acetate]	64	agonistic activity; also recorded: Agonist	1100 ± 1500	0.4 ± 1.3			
CCCCN(CC(=O)NC12CC3CC(CC(C3)C1)C2)C(C)=O [Compound 39, N‐((3S,5S,7S)‐adamantan‐1‐yl)‐2‐(N‐butylacetamido)acetamide]	64	Agonist	500 ± 1400	0.4 ± 9.1			
CC(=O)N(CC(=O)NC12CC3CC(CC(C3)C1)C2)C1CC1 [Compound 34, N‐((3S,5S,7S)‐adamantan‐1‐yl)‐2‐(N‐cyclopropylacetamido)acetamide]	54	Agonist	200	0.3 ± 14			
O=C(CN(C(=O)C1CCCC1)C1CC1)NC12CC3CC(CC(C3)C1)C2 [Compound 32, N‐(2‐(((3S,5S,7S)‐adamantan‐1‐yl)amino)‐2‐oxoethyl)‐N‐cyclopropylcyclopentanecarboxamide]	56	potent hTRPM8 agonist	400	0.2 ± 1.5			
CCCC(=O)OCC(=O)NC12CC3CC(CC(C3)C1)C2 [Compound 24, 2‐((3S,5S,7S)‐adamantan‐1‐ylamino)‐2‐oxoethyl butyrate]	19	agonistic activity; also recorded: Agonist	19000 ± 2000	0.6 ± 0.2			
O=C(CN1CCN(C(=O)Cc2ccccc2)CC1)NC12CC3CC(CC(C3)C1)C2 [Compound 44, N‐((3S,5S,7S)‐adamantan‐1‐yl)‐2‐(4‐(2‐phenylacetyl)piperazin‐1‐yl)acetamide]	69	Agonist	9600 ± 1500	0.7 ± 4.0			
O=C(CN(C(=O)Cc1ccccc1)C1CC1)NC12CC3CC(CC(C3)C1)C2 [Compound 36, N‐(2‐(((3S,5S,7S)‐adamantan‐1‐yl)amino)‐2‐oxoethyl)‐N‐cyclopropyl‐2‐phenylacetamide]	47	Agonist	4900 ± 1700	2.3 ± 2.6			
O=C(COC(=O)c1ccccc1)NC12CC3CC(CC(C3)C1)C2 [Compound 20, 2‐((3S,5S,7S)‐adamantan‐1‐ylamino)‐2‐oxoethyl benzoate]	60	Antagonist		0.4 ± 1.2	1800 ± 1100		
O=C(CN(C(=O)c1ccccc1)C1CC1)NC12CC3CC(CC(C3)C1)C2 [Compound 30, N‐(2‐(((3S,5S,7S)‐adamantan‐1‐yl)amino)‐2‐oxoethyl)‐N‐cyclopropylbenzamide]	92	Agonist	1500 ± 1500	0.7 ± 1.6			
O=C(CN1CCN(C(=O)c2ccccc2)CC1)NC12CC3CC(CC(C3)C1)C2 [Compound 42, N‐((3S,5S,7S)‐adamantan‐1‐yl)‐2‐(4‐benzoylpiperazin‐1‐yl)acetamide]	73	Agonist	5400 ± 1500	0.4 ± 4.3			
O=C(COC(=O)Cc1ccccc1)NC12CC3CC(CC(C3)C1)C2 [Compound 21, 2‐((3S,5S,7S)‐adamantan‐1‐ylamino)‐2‐oxoethyl 2‐phenylacetate]	44	Antagonist		0.5 ± 2.3		1500 ± 1100	
CC(=O)N(CC(=O)NC12CC3CC(CC(C3)C1)C2)C12CC3CC(CC(C3)C1)C2 [Compound 38, N‐((3S,5S,7S)‐adamantan‐1‐yl)‐2‐(N‐((3S,5S,7S)‐adamantan‐1‐yl)acetamido)acetamide]	65	Agonist	2000 ± 1400	0.3 ± 3.6			
CC(=O)NCCCC(=O)OCC(=O)NC12CC3CC(CC(C3)C1)C2 [Compound 27, 2‐((3S,5S,7S)‐adamantan‐1‐ylamino)‐2‐oxoethyl 4‐acetamidobutanoate]	60	agonistic activity; also recorded: Agonist	600 ± 1200	0.3 ± 1.6			
O=C(CN1CCN(C(=O)C2CCCC2)CC1)NC12CC3CC(CC(C3)C1)C2 [Compound 43, N‐((3S,5S,7S)‐adamantan‐1‐yl)‐2‐(4‐(cyclopentanecarbonyl)piperazin‐1‐yl)acetamide]	82	TRPM8 agonist	9300 ± 1500	0.6 ± 1.8			> 10
O=C(COC(=O)C1CCCC1)NC12CC3CC(CC(C3)C1)C2 [Compound 25, 2‐((3S,5S,7S)‐adamantan‐1‐ylamino)‐2‐oxoethyl cyclopentane carboxylate]	57	Antagonist		0.8 ± 3.0	45000 ± 2000		
O=C(CN(C(=O)c1ccccc1-c1ccccc1)C1CC1)NC12CC3CC(CC(C3)C1)C2 [Compound 33, N‐(2‐(((3S,5S,7S)‐adamantan‐1‐yl)amino)‐2‐oxoethyl)‐N‐cyclopropyl‐[1,1′‐biphenyl]‐2‐carboxamide]	48	moderate antagonistic activity; also recorded: Antagonist		2.0 ± 7.8	1100 ± 1200		
CC(=O)N1CCN(CC(=O)NC23CC4CC(CC(C4)C2)C3)CC1 [Compound 45, 2‐(4‐acetylpiperazin‐1‐yl)‐N‐((3S,5S,7S)‐adamantan‐1‐yl)acetamide]	54	Agonist	2300 ± 1600	0.7 ± 2.1			
O=C(COC(=O)c1cccnc1)NC12CC3CC(CC(C3)C1)C2 [Compound 26, 2‐((3S,5S,7S)‐adamantan‐1‐ylamino)‐2‐oxoethyl nicotinate]	72	agonist activity	1900 ± 1600	0.4 ± 6.4			
